The subject of assay [1] is total pRB. The experiment in a line: Total pRB in mitogen-stimulated lymphocytes, anti-pRB^T mAb flow cytometry. The assay is classed as cell-based, Human. Particulars: 10 μg/ml, throughout all times of exposure. How it is done:
(§1) Human peripheral blood lymphocytes, obtained from healthy volunteers by venipuncture, were isolated by density gradient centrifugation. The cells were washed twice with phosphate-buffered saline (PBS), resuspended in RPMI 1640 medium supplemented with 10% fetal calf serum, 100 units/ml penicillin, 100 μg/ml streptomycin and 2 mM L-glutamine at a density of 10^6 cells/ml, treated with 10 μg/ml of phytohemagglutinin (PHA) and incubated at 37.5° C. in the mixture of 95% air and 5% CO2 for the periods of time shown in the respective figure legends. The medium, supplements, and antibiotics were obtained from Life Technologies (Grand Island, N.Y.), PHA from Sigma Chemical Co. (St. Louis, Mo.).
The cells were washed with PBS and fixed in suspension in 1% formaldehyde in PBS for 15 min on ice. […] The cells were then rinsed with PBS containing 1% BSA and their fluorescence was measured by flow cytometry.
Cellular fluorescence was measured with the ELITE ESP flow cytometer/cell sorter (Coulter Inc., Miami, Fla.) using either an argon ion laser (emission at 488 nm) alone or combined with a helium-cadmium laser (emitting UV light). In the first case, fluorescence signals were collected using the standard configuration of the flow cytometer (green fluorescence, representing FITC labeled anti-pRB^P− mAb; red fluorescence representing CyChrome tagged anti-pRB^T mAb). […]
(Flow cytometry measures light scatter and fluorescence of single cells or particles in a stream.)

Another assay deals with underphosphorylated pRB. The experiment in a line: pRB phosphorylation in mitogen-stimulated lymphocytes, anti-pRB^P− mAb flow cytometry. The assay is classed as cell-based, Human. The procedure:
as §1
Stock solution of staurosporine (STP; Kamiya Biomedical Co., Thousand Oaks, Calif.) was made in dimethyl sulfoxide (DMSO) at a concentration 0.2 mM and was stored at −20° C.
The cells were washed with PBS and fixed in suspension in 1% formaldehyde in PBS for 15 min on ice. The cells were then washed with PBS and resuspended in ice-cold 80% ethanol for up to 24 h. After fixation the cells were rinsed twice with PBS and resuspended in 100 μl of PBS containing 0.25% Triton X-100 (Sigma), 1% bovine serum albumin (BSA; Sigma) and 1.2 μg/ml of the anti-pRB^T mAb (clone G3-245; PharMingen cat. No. 14001A) conjugated with CYCHROME® and/or with 1 μg/ml of anti-pRB^P− mAb (clone G99-549; PharMingen cat. No. 14441A), conjugated with FITC and incubated for 2 hours at room temperature. The cells were then rinsed with PBS containing 1% BSA and their fluorescence was measured by flow cytometry.
Cellular fluorescence was measured with the ELITE ESP flow cytometer/cell sorter (Coulter Inc., Miami, Fla.) using either an argon ion laser (emission at 488 nm) alone or combined with a helium-cadmium laser (emitting UV light). In the first case, fluorescence signals were collected using the standard configuration of the flow cytometer (green fluorescence, representing FITC labeled anti-pRB^P− mAb; red fluorescence representing CyChrome tagged anti-pRB^T mAb). In the second case, DNA content was analyzed based on DAPI fluorescence (blue emission) excited by UV light, while the anti-pRB^P− mAb FITC-related emission and anti-pRB^T CYCHROME®-related emission was excited with blue light laser. Unless noted, the procedures for multicolor measurement of cellular fluorescence and multivariate cell analysis were essentially as described in Juan et al., Cell. Prolif. 29:259–266 (1996) and Juan et al., Exper. Cell Res. 227:197–202 (1996). The experiments were repeated several times, on lymphocytes obtained from three different donors, yielding essentially identical results.

The subject of assay [2] is cyclin D3. As to the kind of experiment: Cyclin D3 expression in mitogen-stimulated lymphocytes, flow cytometry. The assay is classed as cell-based, Human. Particulars: 10 μg/ml. How it is done:
as §1
After cell fixation (as described above) the cells were washed twice with PBS, suspended in 1 ml of 0.25% Triton X-100 in PBS, kept on ice for 5 min, centrifuged (300 g; 5 min) and the cell pellet resuspended in 100 μl of PBS containing 0.5 μg of the anti-cyclin D3 mAb (clone G107-565, mouse IgG,; PharMingen cat. No. 14781) and 1% BSA and incubated for 2 hours at room temperature. […] The cells were rinsed again, resuspended in 5 μg/ml of PI and 0.1% RNase in PBS and incubated at room temperature for 20 min prior to fluorescence measurements. Isotype-matched IgG (Sigma) was used as a control to define the background fluorescence. […]

Assay [3] deals with pRB. The experiment in a line: Western blot of pRB in HL-60 cells with anti-pRB^P− and anti-pRB^T mAbs. The assay is classed as cell-based, human. Particulars: HL-60, treated versus control. The text has this: FIG. 10 presents a Western blot showing reactivity of anti-pRB^P− mAb(A) and anti-pRB^T mAb with proteins extracted from control (CON) and PMA-treated cells.
To reveal specificity of the antibodies used in these experiments, a standard Western blotting procedure was used on cellular lysates, as described in Gong et al., Cell Growth Differ. 6:1485–1493 (1995).

Another assay relates to HL-60 cells. The experiment in a line: Cell cycle arrest and apoptosis of HL-60 cells during induced differentiation. The assay is classed as cell-based, human.
The next assay concerns lymphocytes. Particulars: 20 nM; cited from earlier work.
For assay [4], the system named is cyclin D3. To be noted: lymphocytes, 20 nM; cited from earlier work.
Assay [5] concerns total pRB. The experiment in a line: pRB^T in differentiating HL-60 cells, flow cytometry. The assay is classed as cell-based, human. To be noted: RA 5×10^−7 M 5 days, vitamin D3 10^−8 M 6 days. How it is done:
(§2) The human promyelocytic leukemic cell line HL-60 was kindly provided by Dr. Harry A. Crissman of the Los Alamos National Laboratory (Los Alamos, N. Mex.). The cells were maintained in RPMI 1640 supplemented with 10% fetal calf serum, 100 units/ml penicillin, 100 μg/ml streptomycin, and 2 mM L-glutamine at a density between 2 and 8×10^5 cells/ml at 37.5° C. in the mixture of 95% air and 5% CO2 for the periods of time described in the legends to the respective figures. During the exponential phase of cell growth, at densities below 8×10^5 cells/ml, the mean duration of the cell cycle of these cells is 23 hours (estimated as described in Darzynkiewicz, “Mammalian cell cycle analysis,” in The Cell Cycle: A Practical Approach, P. Fantes and R. Brooks, Eds., pp. 45–68 (Oxford Univ. Press, Oxford, UK, (1993)), and the mean duration of G1, S, G2, and M 11, 9, 2, and 1 h, respectively. The medium, supplements, and antibiotics were obtained from Life Technologies (Grand Island, N.Y.).
(§3) All-trans retinoic acid (RA), 1,25-dihydroxy vitamin D3 (vitamin D3), and phorbol myristate acetate (PMA) were purchased from Sigma Chemical Co. (St. Louis, Mo.). […] Control cells were treated with an equivalent concentration of ethanol (<0.02%). Stock solution of PMA at 1.6 mM was prepared in DMSO, stored at −20° C. in the dark, and used at a final concentration of 4×10^−8 M. The cultures were kept shielded from light. […]
(§4) Methods were essentially as described in Example 1. […] The cells were then rinsed with PBS containing 1% BSA, counterstained with 4,6-diamidino-2-phenyl indole (DAPI) (Molecular Probes Inc., Eugene, Oreg.), and their fluorescence was measured by flow cytometry.
(§5) Cellular fluorescence was measured with the ELITE ESP flow cytometer/cell sorter (Coulter Inc., Miami, Fla.) using an argon ion laser (emission at 488 nm) combined with a helium-cadmium laser (emitting UV light). DNA content was analyzed based on DAPI fluorescence (blue emission) excited by UV light, while the anti-pRb^P− mAb (FITC)-related emission and anti-pRB^T (CYCHROME®)-related emission was excited with blue light laser. To obtain the mean fluorescence values as shown in FIGS. 7–10, the cells were gated based on differences in their DNA content to distinguish cells in G1, S, and G2/M, and from the mean values of the FITC fluorescence the mean value of the respective control cells (FITC-conjugated isotype-matched IgG1) in the same phase of the cycle was subtracted. The mean values of S phase cells were multiplied by 0.75 and of G2/M cells by 0.5 to express the pRB-associated cell fluorescence per unit of DNA. The data were normalized to the mean fluorescence value of G1 cells from the untreated, control culture (100), as shown in FIGS. 7–10.

The next assay relates to hypophosphorylated pRB. As to the kind of experiment: pRB^P− in differentiating HL-60 cells, flow cytometry. The assay is classed as cell-based, human. Particulars: RA 5×10^−7 M 5 days, vitamin D3 10^−8 M 6 days. The procedure: as §2, §3, §4, §5
Assay [6] deals with pRB. The experiment in a line: pRB^P−/pRB^T ratio in differentiating HL-60 cells, flow cytometry. The assay is classed as cell-based, human. To be noted: RA 5×10^−7 M 5 days, vitamin D3 10^−8 M 6 days.
Experimental: Briefly, the cells were fixed in suspension in 1% formaldehyde in PBS for 15 min on ice, then washed with PBS, and resuspended in ice-cold 80% ethanol for up to 24 h. […] The cells were then rinsed with PBS containing 1% BSA, counterstained with 4,6-diamidino-2-phenyl indole (DAPI) (Molecular Probes Inc., Eugene, Oreg.), and their fluorescence was measured by flow cytometry.

In the case of phytohemagglutinin [PHA], the “frequency of cells reactive with anti-pRB^T mAb” value with total pRB [1] is listed as “over 80%”. Also, the “percentage of anti-pRB^P− mAb negative cells” value in the assay on underphosphorylated pRB (10 μg/ml, at 24 h) is on record as 45%; in the assay with underphosphorylated pRB (10 μg/ml, decreasing from 98 between 3 and 4 hours of stimulation) it was “about 20%”; in the assay on underphosphorylated pRB (10 μg/ml, up to 14 h), “about 20%”. Besides, the “fraction of lymphocytes that did not react with anti-pRB^P− mAb” value with underphosphorylated pRB (10 μg/ml, between 4 and 12 hours) is given as roughly 80%. Further, the “proportion of cyclin D3-positive cells” value in the assay with cyclin D3 [2] (at 12 h) is listed as roughly 70%; with cyclin D3 [2] (at 24 h), 40%.
On to `CCCCCCCCCCCCCC(=O)O[C@@H]1[C@@H](C)[C@@]2(O)[C@@H](C=C(CO)C[C@]3(O)C(=O)C(C)=C[C@@H]23)[C@@H]2C(C)(C)[C@]12OC(C)=O` [PMA, phorbol myristate acetate], for which, in the assay on pRB [3], the “bands of hypophosphorylated, hyperphosphorylated and total pRB, Western blot” value was “increased intensity bands”. Moreover, in the assay with HL-60 cells, the “cell cycle arrest on induced differentiation” value is “cell arrest primarily in G0/1”.
`CN[C@@H]1C[C@H]2O[C@@](C)([C@@H]1OC)n1c3ccccc3c3c4c(c5c6ccccc6n2c5c31)C(=O)NC4` [STP, staurosporine]: the “appearance of the cell population unreactive with anti-pRB^P− mAb (pRB phosphorylation)” value in the assay with underphosphorylated pRB (lymphocytes stimulated with PHA 24 hours, 20 nM) is “precluded the appearance of the cell population unreactive with anti-pRB^P− mAb”. The “arrest of lymphocytes in cell cycle” value in the assay with lymphocytes is listed as “arrests lymphocytes in G1”. Also, the “induction of cyclin D3” value with cyclin D3 [4] is on record as “does not interfere with the induction of cyclin D3”.
In the case of `CC1=C(/C=C/C(C)=C/C=C/C(C)=C/C(=O)O)C(C)(C)CCC1` [RA, All-trans retinoic acid], in the assay on total pRB [5], the “increase in pRB^T of G0/1 cells versus untreated cultures” value was determined as 60%; the “pRB^T of S and G2/M cells versus untreated cultures” value is on record as “nearly twofold higher”. Further, the “cell cycle arrest on induced differentiation” value with HL-60 cells is on record as “cell arrest primarily in G0/1”. Further, in the assay with hypophosphorylated pRB, the “increase in pRB^P− of G0/1 cells” value is given as “fourfold”; the “pRB^P− of S and G2/M phase cells versus control cultures” value is reported as “over an order of magnitude higher”. Moreover, the “pRB^P−/pRB^T level of S and G2/M phase cells versus control” value in the assay on pRB [6] was “over fivefold higher”.
On to `C=C1/C(=C\C=C2/CCC[C@]3(C)[C@@H]([C@H](C)CCCC(C)(C)O)CC[C@@H]23)C[C@@H](O)C[C@@H]1O` [vitamin D3, 1,25-dihydroxy vitamin D3], for which, in the assay on total pRB [5], the “increase in pRB^T of G0/1 cells versus untreated cultures” value came to 20%; the “pRB^T of S and G2/M cells versus untreated cultures” value is reported as “nearly twofold higher”. In addition, the “cell cycle arrest on induced differentiation” value with HL-60 cells is listed as “cell arrest primarily in G0/1”. In the assay on hypophosphorylated pRB, the “increase in pRB^P− of G0/1 cells” value is recorded as “fourfold”; the “pRB^P− of S and G2/M phase cells versus control cultures” value is “over an order of magnitude higher”.

The values above are taken from patent US7070943B2 (priority 1998, dated 2006).
